From PubChem BioAssay (NCI)
Several values for one entry are separate records, joined by “and”; a condition that tells them apart may be missing. Identical values can stand only once.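 These data come from cells grown in 96-well plates and exposed to compound for 48 hours at five concentrations. The concentration for 50% growth inhibition is given as GI50. Definition used: TGI = concentration required for complete inhibition of growth.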

Columns and labels:
Assay in all cases: NCI tumour cell line growth inhibition, 48 h
[1] = test system: DLD-1 colon
[2] = test system: P388 leukemia
[3] = test system: KM20L2 colon
[4] = test system: DMS 273 small cell lung
[5] = test system: RXF-631 renal
[6] = test system: XF 498 CNS
[7] = test system: P388/ADR leukemia
[8] = test system: HOP-18 NSCLC
[9] = test system: M19-MEL melanoma
[10] = test system: SNB-78 CNS
[11] = test system: MDA-N

Row | SMILES | TGI [1] | TGI [3] | TGI [4] | TGI [5] | TGI [6] | TGI [8] | TGI [9] | TGI [10] | further results
1 | CNC(=O)OCc1nc(SC2CCCCO2)n(C)c1COC(=O)NC (stereo not given) | > 100 µM | > 100 µM | > 100 µM | > 100 µM | > 100 µM | > 100 µM | > 100 µM | > 100 µM | TGI [2]: > 100 µM; TGI [7]: > 100 µM
2 | O=C(c1ccccc1)C1N=NCC1c1ccc([N+](=O)[O-])cc1 (stereo not given) |  |  |  |  |  |  |  |  | TGI [11]: > 100 µM
3 | CCCN=Cc1cc(Cc2ccc(O)c(C=NCCC)c2)ccc1O |  |  |  |  |  |  |  |  | TGI [11]: 10.1 µM
4 | Nc1cc2cccc[n+]2c2cc(Cl)ccc12 |  |  |  |  |  |  |  |  | GI50 [11]: 12.6 µM; TGI [11]: 38.8 µM
5 | NC(=S)N/N=C(/CC(=O)c1ccccc1)C(=O)Nc1ccc(Cl)c(Cl)c1 | > 100 µM | > 100 µM | > 100 µM |  |  | > 100 µM | > 100 µM | > 100 µM | 
6 | COc1ccccc1NC(=O)C1=C(C)NC(C)=C(C(=O)Nc2ccccc2OC)C1c1ccccc1F | > 100 µM | > 100 µM | > 100 µM | > 100 µM |  | > 100 µM |  | > 100 µM | 
7 | COC(=O)CCC(NC(=S)N/N=C(\C)c1nccs1)C(=O)OC (stereo not given) | > 100 µM | > 100 µM |  | > 100 µM | > 100 µM | > 100 µM | > 100 µM | > 100 µM | 
8 | CCCc1[nH]nc(CCC(=O)N(Cc2ccccc2)Cc2ccccc2)c1CC | > 100 µM | > 100 µM | > 100 µM | > 100 µM | > 100 µM | > 100 µM | > 100 µM |  | 
9 | CC(C)C(=O)Nc1nc2nc[nH]c2c(=O)[nH]1 | > 100 µM | > 100 µM | > 100 µM | > 100 µM | > 100 µM | > 100 µM | > 100 µM | > 100 µM | 
10 | COc1cc(C2c3cc4c(cc3OC(N3CCCC3)C2C)OCO4)cc(OC)c1OC (stereo not given) |  |  |  |  |  |  |  |  | TGI [11]: 0.418 µM
11 | O=C([O-])c1ccccc1Nc1ccccn1.O=C([O-])c1ccccc1Nc1ccccn1.[Ni+2] | > 100 µM |  |  |  |  |  | > 100 µM | > 100 µM | GI50 [1]: > 100 µM; GI50 [9]: > 100 µM; GI50 [10]: 91.8 µM
12 | CNS(=O)(=O)NN(C)S(=O)(=O)c1ccc(F)cc1 | > 100 µM | > 100 µM | > 100 µM |  | > 100 µM | > 100 µM |  |  | 
13 | CCCCCCCCCc1cc(=O)c2ccc(OCc3ccccc3)cc2o1 | > 100 µM | > 100 µM | > 100 µM |  | > 100 µM | > 100 µM | > 100 µM | > 100 µM | 
14 | COCCN1C2=CCCCC2=Nc2c1nc(N)[nH]c2=O | > 100 µM | > 100 µM | > 100 µM | > 100 µM | > 100 µM | > 100 µM | > 100 µM | > 100 µM | 
15 | Cc1ccncc1.[O]=[Ge].[O]=[Ge].[O]=[Ge].[O]=[Ge].[O]=[Ge].[O]=[Ge][OH].[O]=[Ge][OH] | > 100 µM | > 100 µM | > 100 µM | > 100 µM | > 100 µM | > 100 µM | > 100 µM | > 100 µM | GI50 [1]: > 100 µM; GI50 [3]: > 100 µM; GI50 [4]: > 100 µM; GI50 [5]: > 100 µM; GI50 [6]: > 100 µM; GI50 [8]: > 100 µM; GI50 [9]: > 100 µM; GI50 [10]: > 100 µM
16 | O=C(O)c1ccc([Se][Se]c2ccc(C(=O)O)cc2)cc1 | > 100 µM | > 100 µM | 49.7 µM | 52.6 µM | 81.1 µM | 82.3 µM | 40.5 µM | 52.4 µM | 
17 | Cc1occc1C(=S)Nc1ccc(Cl)c(COC(C)(C)C)c1 |  |  |  |  |  |  |  |  | TGI [11]: 34.4 µM
18 | O=Cc1cn(C(=O)c2ccccc2)c2ccccc12 | > 100 µM | > 100 µM | > 100 µM |  |  |  | > 100 µM | > 100 µM | 
19 | O=C(c1ccc(F)cc1)c1cccc(C(=O)c2ccc(F)cc2)n1 | > 100 µM | > 100 µM | > 100 µM |  | > 59.7 µM | > 100 µM | > 100 µM | > 58.1 µM | TGI [11]: > 100 µM
20 | C=CCC1([C@H](C)[C@@H](OC(C)=O)c2cc(OC)c(OC)c(OC)c2)C[C@@H](OC)CCC1=O (stereo not given in full) | 37.5 µM | 24.6 µM |  |  | 32.9 µM |  | 91.3 µM |  | 
21 | CC1CCCCc2nc3c(c(=O)n21)CCCC3 (stereo not given) | > 100 µM | > 100 µM | > 100 µM | > 100 µM | > 100 µM |  | > 100 µM | > 100 µM | 
22 | CC(C)(C)OC(=O)C#CC[C@H]1CCCC1/C=C/C(O)=C1/C(=O)NC(CCCNC(=O)OC(C)(C)C)C1=O (stereo not given in full) | > 100 µM | 53.2 µM | 65.9 µM | 44.9 µM |  | > 100 µM | 67.9 µM |  | 

Row | SMILES | TGI [1] | TGI [3] | TGI [4] | TGI [5] | TGI [6] | TGI [8] | TGI [9] | TGI [10] | further results
23 | CN(C)/C=C/c1nnc([N+](=O)[O-])s1 |  |  |  |  |  |  |  |  | TGI [11]: 17.4 µM
24 | CCOC(=O)C1=C(C)N(Cc2ccccc2)C(C)=C(C(=O)OCC)C1c1ccccc1O | > 100 µM | > 100 µM | > 100 µM | > 100 µM | 51.3 µM | > 100 µM | 75.7 µM |  | 
25 | CC(=O)NC(CCCNCc1ccccc1)C(=O)NCc1ccccc1 (stereo not given) | > 100 µM | > 100 µM | > 100 µM | > 100 µM | > 100 µM |  | > 100 µM | > 100 µM | 
26 | Cc1cc(N(CCC#N)S(=O)(=O)c2ccccc2)ccc1/C=C1N=C(/C=C/c2ccccc2)OC\1=O | > 100 µM | > 100 µM | > 100 µM |  | > 100 µM |  |  | > 100 µM | 
27 | COc1ccc2nc3cc([N+](=O)[O-])ccc3c(NCCCCCN(C)C)c2c1 |  |  |  |  |  |  |  |  | GI50 [11]: 0.438 µM; TGI [11]: 1.57 µM
28 | N#C/C(=C1\OC(=O)C(c2ccc(Br)cc2)=C1O)c1ccc(Br)cc1 | 34.6 µM | 31.5 µM | 48.2 µM | 92.6 µM | 25.6 µM | 26.3 µM | 31.1 µM | 28.2 µM | 
29 | COc1cccc(NC(=O)CC(=O)N2N=C(N(CCC#N)c3ccc(Cl)cc3)CC2c2ccccc2)c1 (stereo not given) | > 100 µM | > 100 µM | > 100 µM |  |  | > 100 µM | > 100 µM | > 100 µM | 
30 | CCCCCCCCCCCCOC(=S)NCCCC | > 100 µM | 39.5 µM | 41 µM | 55.6 µM | 31.9 µM | 89.1 µM | > 100 µM | 88.4 µM | 
31 | c1cc(-c2cn3ccsc3n2)ccn1 | > 100 µM | > 31.6 µM | > 100 µM | > 100 µM | > 100 µM | > 100 µM | > 100 µM | > 100 µM | 
32 | COc1cc(C2c3cc4c(cc3[C@@H](Nc3ccc(C#N)cc3)C3COC(=O)[C@H]23)OCO4)cc(OC)c1O (stereo not given in full) | 3.51 µM | 75 µM |  |  | 22.8 µM | 39.3 µM |  | 75 µM | TGI [2]: 0.832 µM; TGI [11]: 18.7 µM and > 100 µM; TGI [7]: 2.11 µM
33 | CC1=NCCc2c1[nH]c1cc(O)ccc21 | > 100 µM | > 100 µM |  | > 100 µM | > 100 µM | > 100 µM | > 100 µM | > 100 µM | 
34 | O=C(CC(=O)CC(O)(C(F)(F)F)C(F)(F)F)CC(O)(C(F)(F)F)C(F)(F)F |  |  |  |  |  |  |  |  | TGI [11]: > 10 µM
35 | N#CC(C(=O)/C(=N/NC(=O)c1ccccc1O)C(C#N)c1ccc(Cl)cc1)c1ccc(Cl)cc1 (stereo not given) | 33 µM | 27.2 µM |  |  | 26.3 µM | 23.6 µM | 55.3 µM | > 100 µM | 
36 | CC(=O)NNc1nc(C)c(C(=O)NNC(=O)C(=O)Nc2ccccc2C#N)s1 | > 100 µM | > 100 µM | > 100 µM | > 100 µM |  | > 100 µM | > 100 µM | > 100 µM | 
37 | C=C1C(=O)O[C@H]2[C@H]1[C@H](OC(=O)/C(C)=C\C)CC(=C)[C@@H]1[C@H](O)[C@H]3O[C@@]3(C)[C@@]12O | > 100 µM | > 100 µM | > 100 µM | > 100 µM | > 100 µM | > 100 µM | > 100 µM | > 100 µM | 
38 | Cc1ccc(C(=O)O/N=C2/CCC/C2=C\c2ccccc2)cc1 | > 100 µM | > 100 µM | > 100 µM |  |  | > 100 µM | > 100 µM | > 100 µM | 
39 | CN(C(=O)C12C3C4C5C3C1(C(=O)O)C5C42)C(C)(C)C (stereo not given) | 55.2 µM | > 100 µM | 33.5 µM | > 100 µM | > 100 µM | > 100 µM | > 100 µM | > 100 µM | 
40 | Cc1ccc(-c2c(N)[n+]([O-])c3ccccc3[n+]2[O-])cc1 | 28.7 µM | 38.9 µM | 29.5 µM | 3.19 µM | 19.5 µM | 29.1 µM | 24.8 µM | 37.1 µM | 
41 | COc1nc(NC2OCC(OC(C)=O)C(OC(C)=O)C2OC(C)=O)c(N=CC=Nc2c(NC3OCC(OC(C)=O)C(OC(C)=O)C3OC(C)=O)nc(OC)n(C)c2=O)c(=O)n1C (stereo not given) | > 100 µM | > 100 µM | > 100 µM |  | 95.9 µM | > 100 µM | > 100 µM | > 100 µM | 
42 | COc1c2c(c3c(c1CCC(=O)O)OC(C)(C)C=C3)OC(C)(C)C=C2 |  |  |  |  |  |  |  |  | TGI [11]: > 100 µM
43 | CCCCOc1ccc(NC(N)=Nc2ccc(Cl)cc2)cc1 |  |  |  |  |  |  |  |  | TGI [11]: 19.5 µM
